Data from US11439707B2, “Hypocrellin derivative substituted both in a peri-position and in 2-position by amino, preparation method, and application thereof” (priority 2017, dated 2022).

Key:
[1] = absorption spectrum (maximum absorption wavelength, molar extinction coefficient); assay type: physicochemical
[2] = singlet oxygen efficiency test, reference rose bengal; assay type: physicochemical

Row | Compound | maximum absorption wavelength [1] [nm] | molar extinction coefficient [1] | singlet oxygen yield [2] [%]
1 | COCCOCCOCCOCCOCCOCCOCCOCCOCCNC(=O)C1CCC(CNc2c3c4c5c(c(OC)c(=O)c6c(O)cc(OC)c(c7c(OC)cc(NCC8CCC(C(=O)NCCOCCOCCOCCOCCOCCOCCOCCOCCOC)CC8)c(c2=O)c74)c65)C(C(C)=O)C(C)=C3)CC1 (stereo not drawn) [HB-13c-NH-PEG8] | 630 | 33,500 M^−1cm^−1 | 39
2 | COc1c2c3c4c(c(NCCSCCOCCO)c(=O)c5c(O)cc(OC)c(c6c(OC)cc(NCCSCCOCCO)c(c1=O)c63)c54)C=C(C)C2C(C)=O (stereo not drawn) [HB-6d-PEG1] | 625 | 30,500 M^−1cm^−1 | 32
3 | COc1c(NCCCC(=O)NCCCC[N+](C)(C)C)c2c(=O)cc(OC)c3c4c(OC)cc(=O)c5c(O)c(NCCCC(=O)NCCCC[N+](C)(C)C)c6c(c(c1CC(C)=C6)c23)c54 [HC-8b-NH—C4-N^+] | 626 | 30,500 M^−1cm^−1 | 32
4 | COc1c(NCC2CCC(C(=O)OCCCC[N+](C)(C)C)CC2)c2c(=O)cc(OC)c3c4c(OC)cc(=O)c5c(O)c(NCC6CCC(C(=O)OCCCC[N+](C)(C)C)CC6)c6c(c(c1CC(C)=C6)c23)c54 (stereo not drawn) [HC-13b-C4-N^+] | 624 | 31,500 M^−1cm^−1 | 36
5 | COCCOC(=O)C1(Nc2c(NC3(C(=O)OCCOC)CC3)c3c(=O)cc(OC)c4c5c(OC)cc(=O)c6c(O)c(OC)c7c(c(c2C=C(C)C7)c34)c65)CC1 [HC-35a-PEG1] | 622 | 31,000 M^−1cm^−1 | 32
6 | COc1c2c3c4c(c(NC(CC(=O)O)C(=O)O)c(=O)c5c(O)cc(OC)c(c6c(OC)cc(NC(CC(=O)O)C(=O)O)c(c1=O)c63)c54)C=C(C)C2C(C)=O (stereo not drawn) [HB-27d] | 620 | 21,500 M^−1cm^−1 | 18
7 | COc1c2c3c4c(c(NCCOC(=O)N5CC(=O)NC(=O)C5)c(=O)c5c(NCCOC(=O)N6CC(=O)NC(=O)C6)cc(OC)c(c6c(OC)cc(O)c(c1=O)c63)c54)C=C(C)C2C(C)=O (stereo not drawn) [HB-40c] | 632 | 34,000 M^−1cm^−1 | 40
8 | COc1c2c3c4c(c(NC(C(=O)O)C(C)C)c(=O)c5c(O)cc(OC)c(c6c(OC)cc(NC(C(=O)O)C(C)C)c(c1=O)c63)c54)C=C(C)C2C(C)=O (stereo not drawn) [HB-22d] | 625 | 21,500 M^−1cm^−1 | 22
9 | COCCOCCOCCOCCOCCOCCOC(=O)CCCNc1c2c3c4c(c(OC)c(=O)c5c(NCCCC(=O)OCCOCCOCCOCCOCCOCCOC)cc(OC)c(c6c(OC)cc(O)c(c1=O)c63)c54)C(C(C)=O)C(C)=C2 (stereo not drawn) [HB-8d-PEG6] | 620 | 31,500 M^−1cm^−1 | 32
10 | COc1c2c3c4c(c(NCC(=O)O)c(=O)c5c(NCCCC(=O)O)cc(OC)c(c6c(OC)cc(O)c(c1=O)c63)c54)C=C(C)C2C(C)=O (stereo not drawn) [HB-43c] | 626 | 26,500 M^−1cm^−1 | 30
11 | COc1c2c3c4c(c(NCC5CCC(C(=O)OCCCCCC[P+](c6ccccc6)(c6ccccc6)c6ccccc6)CC5)c(=O)c5c(NCC6CCC(C(=O)OCCCCCC[P+](c7ccccc7)(c7ccccc7)c7ccccc7)CC6)cc(OC)c(c6c(OC)cc(O)c(c1=O)c63)c54)C=C(C)C2 (stereo not drawn) [HC-30c-C6-PPh3^+] | 632 | 33,500 M^−1cm^−1 | 40
12 | COc1c2c3c4c(c(NC5CCC(C(=O)O)CC5)c(=O)c5c(NC6CCC(C(=O)O)CC6)cc(OC)c(c6c(OC)cc(O)c(c1=O)c63)c54)C=C(C)C2C(C)=O (stereo not drawn) [HB-14c] | 621 | 28,000 M^−1cm^−1 | 26
13 | COCCOCCOCCOCCOCCOCCOC(=O)C1CCC(Nc2c3c4c5c(c(OC)c(=O)c6c(NC7CCC(C(=O)OCCOCCOCCOCCOCCOCCOC)C7)cc(OC)c(c7c(OC)cc(O)c(c2=O)c74)c65)C(C(C)=O)C(C)=C3)C1 (stereo not drawn) [HB-19d-PEG6] | 636 | 31,000 M^−1cm^−1 | 32
14 | COCCOCCC(=O)OCCNc1c(NCCOC(=O)CCOCCOC)c2c(=O)cc(OC)c3c4c(OC)cc(=O)c5c(O)c(OC)c6c(c(c1C=C(C)C6C(C)=O)c23)c54 (stereo not drawn) [HB-2a-PEG1] | 620 | 30,500 M^−1cm^−1 | 30
15 | COc1c(NCCCC(=O)O)c2c(=O)cc(OC)c3c4c(OC)cc(=O)c5c(O)c(NCC(=O)O)c6c(c(c1C(C(C)=O)C(C)=C6)c23)c54 (stereo not drawn) [HB-43b] | 618 | 26,000 M^−1cm^−1 | 25
16 | COc1c2c3c4c(c(NCCCS(=O)(=O)O)c(=O)c5c(O)cc(OC)c(c6c(OC)cc(NCS(=O)(=O)O)c(c1=O)c63)c54)C=C(C)C2 [HC-45d] | 624 | 21,000 M^−1cm^−1 | 21

Row | Compound | maximum absorption wavelength [1] [nm] | molar extinction coefficient [1] | singlet oxygen yield [2] [%]
17 | COCCOCCOCCOCCOCCOCCOCCOCCOCCOCCOCCOCCOC(=O)CCCCCNc1c2c3c4c(c(OC)c(=O)c5c(NCCCCCC(=O)OCCOCCOCCOCCOCCOCCOCCOCCOCCOCCOCCOCCOC)cc(OC)c(c6c(OC)cc(O)c(c1=O)c63)c54)CC(C)=C2 [HC-9d-PEG12] | 625 | 31,500 M^−1cm^−1 | 32
18 | COCCOCCC(=O)OCCNc1c(NCCOC(=O)CCOCCOC)c2c(=O)cc(OC)c3c4c(OC)cc(=O)c5c(O)c(OC)c6c(c(c1C=C(C)C6)c23)c54 [HC-2a-PEG1] | 622 | 30,000 M^−1cm^−1 | 30
19 | COCCOCCOCCOCCOCCOCCOC(=O)C1CCCC(Nc2c3c4c5c(c(OC)c(=O)c6c(NC7CCCC(C(=O)OCCOCCOCCOCCOCCOCCOC)C7)cc(OC)c(c7c(OC)cc(O)c(c2=O)c74)c65)C(C(C)=O)C(C)=C3)C1 (stereo not drawn) [HB-15d-PEG6] | 630 | 32,500 M^−1cm^−1 | 32
20 | COCCOCCOCCOCCOCCOCCOCCOCCOCCOCCOCCOCCOCCC(=O)OCCNc1c2c3c4c(c(OC)c(=O)c5c(O)cc(OC)c(c6c(OC)cc(NCCOC(=O)CCOCCOCCOCCOCCOCCOCCOCCOCCOCCOCCOCCOCCOC)c(c1=O)c63)c54)C(C(C)=O)C(C)=C2 (stereo not drawn) [HB-2c-PEG12] | 626 | 32,500 M^−1cm^−1 | 36
21 | COc1c(NCCC(=O)O)c2c(=O)cc(OC)c3c4c(OC)cc(=O)c5c(O)c(NCCC(=O)O)c6c(c(c1C(C(C)=O)C(C)=C6)c23)c54 (stereo not drawn) [HB-10b] | 615 | 31,500 M^−1cm^−1 | 34
22 | COCCOC(=O)C1CCC(CNc2c(NCC3CCC(C(=O)OCCOC)CC3)c3c(=O)cc(OC)c4c5c(OC)cc(=O)c6c(O)c(OC)c7c(c(c2C=C(C)C7)c34)c65)CC1 (stereo not drawn) [HC-13a-PEG1] | 622 | 30,000 M^−1cm^−1 | 32
23 | COc1c2c3c4c(c(NC(CO)C(=O)O)c(=O)c5c(O)cc(OC)c(c6c(OC)cc(NC(CO)C(=O)O)c(c1=O)c63)c54)C=C(C)C2C(C)=O (stereo not drawn) [HB-23d] | 621 | 21,500 M^−1cm^−1 | 18
24 | COc1c2c3c4c(c(NC(CCC(=O)O)C(=O)O)c(=O)c5c(NC(CCC(=O)O)C(=O)O)cc(OC)c(c6c(OC)cc(O)c(c1=O)c63)c54)C=C(C)C2C(C)=O (stereo not drawn) [HB-28c] | 625 | 21,500 M^−1cm^−1 | 22
25 | COc1c(O)c2c(=O)cc(OC)c3c4c(OC)cc(=O)c5c(NC(CS)C(=O)O)c(NC(CS)C(=O)O)c6c(c(c1C(C(C)=O)C(C)=C6)c23)c54 (stereo not drawn) [HB-25a] | 625 | 21,500 M^−1cm^−1 | 18
26 | COCCOCCOCCOCCOC(=O)C1CCC(CNc2c3c4c5c(c(OC)c(=O)c6c(O)cc(OC)c(c7c(OC)cc(NCC8CCC(C(=O)OCCOCCOCCOCCOC)CC8)c(c2=O)c74)c65)C(C(C)=O)C(C)=C3)CC1 (stereo not drawn) [HB-13c-PEG4] | 630 | 32,500 M^−1cm^−1 | 38
27 | COc1c(NCCCCS(=O)(=O)O)c2c(=O)cc(OC)c3c4c(OC)cc(=O)c5c(O)c(NCCCCS(=O)(=O)O)c6c(c(c1C(C(C)=O)C(C)=C6)c23)c54 (stereo not drawn) [HB-11b-C4-SO3H] | 620 | 30,500 M^−1cm^−1 | 34
28 | COc1c2c3c4c(c(NCC5CCC(C(=O)NCCCCCC[P+](c6ccccc6)(c6ccccc6)c6ccccc6)CC5)c(=O)c5c(NCC6CCC(C(=O)NCCCCCC[P+](c7ccccc7)(c7ccccc7)c7ccccc7)CC6)cc(OC)c(c6c(OC)cc(O)c(c1=O)c63)c54)C=C(C)C2 (stereo not drawn) [HC-13c-NH—C6-PPh3+] | 632 | 33,500 M^−1cm^−1 | 38
29 | COc1c2c3c4c(c(NCCCS(=O)(=O)O)c(=O)c5c(NCS(=O)(=O)O)cc(OC)c(c6c(OC)cc(O)c(c1=O)c63)c54)C=C(C)C2 [HC-45c] | 627 | 22,000 M^−1cm^−1 | 21
30 | CCNc1c2c3c4c(c(OC)c(=O)c5c(NC6CCCC6)cc(OC)c(c6c(OC)cc(O)c(c1=O)c63)c54)C(C(C)=O)C(C)=C2 (stereo not drawn) [HB-44d] | 622 | 21,500 M^−1cm^−1 | 21
31 | CCCNc1c2c3c4c(c(OC)c(=O)c5c(O)cc(OC)c(c6c(OC)cc(NCCC)c(c1=O)c63)c54)C(C(C)=O)C(C)=C2 (stereo not drawn) [HB-33c] | 618 | 34,500 M^−1cm^−1 | 35
32 | COCCOCCOCCOCCOCCOCCOCCC(=O)N1CCC(CNc2c3c4c5c(c(OC)c(=O)c6c(O)cc(OC)c(c7c(OC)cc(NCC8CCN(C(=O)CCOCCOCCOCCOCCOCCOCCOC)CC8)c(c2=O)c74)c65)C(C(C)=O)C(C)=C3)CC1 (stereo not drawn) [HB-31c-PEG6] | 632 | 33,500 M^−1cm^−1 | 40
